Laboratory results from patent US9951065B2 (Gilead Sciences, Inc., priority 2015, dated 2018).

Target: T1, IDO1 (Homo sapiens, UniProt P14902)
T1 construct: HeLa cells were treated with a test compound in the presence of IFNγ, which induces IDO1 expression; host or cells: H1-HeLa cells, IDO1 induced with IFNγ
Assay: Cell-based (HeLa) assay for measurement of IDO1 inhibition (kynurenine levels in supernatant after IFNγ induction)
Settings: HeLa cells, geometric mean of a minimum of four determinations
Procedure, shortened: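 HeLa cells, 1,250 per well, treated with compound (0.5% DMSO final) plus IFNγ to induce IDO1, for 48 h. Supernatant kynurenine measured by TCA hydrolysis at 60 °C, then p-dimethylaminobenzaldehyde, absorbance 480 nm. EC50 from a four-parameter fit normalized to −/+IFNγ controls; geometric mean of at least four runs.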

[1] = IFNγ-induced IDO1, kynurenine in supernatant, 48 hour incubation
[2] = IFNγ-induced IDO1, kynurenine in supernatant after 48 hour incubation

T1 sequence (P14902 whole entry): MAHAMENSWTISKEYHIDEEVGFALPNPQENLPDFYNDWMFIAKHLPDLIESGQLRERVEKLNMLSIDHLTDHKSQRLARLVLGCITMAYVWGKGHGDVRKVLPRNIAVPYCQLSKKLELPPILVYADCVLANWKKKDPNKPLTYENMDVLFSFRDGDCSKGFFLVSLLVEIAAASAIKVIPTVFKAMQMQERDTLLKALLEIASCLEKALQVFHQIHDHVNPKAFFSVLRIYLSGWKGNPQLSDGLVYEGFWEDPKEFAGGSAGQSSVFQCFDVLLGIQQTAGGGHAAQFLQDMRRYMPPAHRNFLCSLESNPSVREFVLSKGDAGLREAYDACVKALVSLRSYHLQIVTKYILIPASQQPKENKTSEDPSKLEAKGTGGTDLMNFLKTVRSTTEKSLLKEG

Compound	EC50 [1] [µM]	EC50 [2] [µM]
CN1[C@@H]2CCC(Nc3nc4c(F)c(F)cc(/C(=N/O)Nc5ccc(F)c(Cl)c5)c4[nH]3)[C@H]1CC2 (stereo partly drawn) [Example 469, N-(3-chloro-4-fluorophenyl)-4,5-difluoro-N′-hydroxy-2-(((1R,5R)-8-methyl-8-azabicyclo[3.2.1]octan-2-yl)amino)-1H-benzo[d]imidazole-7-carboximidamide]	0.959	
Cn1nccc1CNc1nc2nccc(/C(=N/O)Nc3ccc(F)c(Cl)c3)c2[nH]1 [Example 358, N-(3-chloro-4-fluorophenyl)-N′-hydroxy-2-(((1-methyl-1H-pyrazol-5-yl)methyl)amino)-1H-imidazo[4,5-b]pyridine-7-carboximidamide]	8.79	
O/N=C(\Nc1ccc(F)c(Cl)c1)c1cc(F)cc2nc(NCCN3CCCC3)[nH]c12 [Example 380, N-(3-chloro-4-fluorophenyl)-5-fluoro-N′-hydroxy-2-((2-(pyrrolidin-1-yl)ethyl)amino)-1H-benzo[d]imidazole-7-carboximidamide]	1.39	
CC(C)CNCCc1nc2nccc(/C(=N/O)Nc3ccc(F)c(Cl)c3)c2[nH]1 [Example 206, N-(3-chloro-4-fluorophenyl)-N′-hydroxy-2-(2-(isobutylamino)ethyl)-3H-imidazo[4,5-b]pyridine-7-carboximidamide]		2.3
CC(C)NCc1nc2nccc(/C(=N/O)Nc3ccc(F)c(Cl)c3)c2[nH]1 [Example 116, N-(3-Chloro-4-fluorophenyl)-N′-hydroxy-2-((isopropylamino)methyl)-1H-imidazo[4,5-b]pyridine-7-carboximidamide]		0.74
CCNCCc1nc2nccc(/C(=N/O)Nc3ccc(F)c(Cl)c3)c2[nH]1 [Example 204, N-(3-chloro-4-fluorophenyl)-2-(2-(ethylamino)ethyl)-N′-hydroxy-3H-imidazo[4,5-b]pyridine-7-carboximidamide]		2.19
O/N=C(\Nc1ccc(F)c(Cl)c1)c1ccnc2nc(CCN3CCC(O)CC3)[nH]c12 [Example 262, N-(3-chloro-4-fluorophenyl)-N′-hydroxy-2-(2-(4-hydroxypiperidin-1-yl)ethyl)-1H-imidazo[4,5-b]pyridine-7-carboximidamide]		3.24
O/N=C(\Nc1ccc(F)c(Cl)c1)c1ccnc2nc(C(O)c3ccccc3)[nH]c12 (stereo not drawn) [Example 173, N-(3-Chloro-4-fluorophenyl)-N′-hydroxy-2-(hydroxy(phenyl)methyl)-1H-imidazo[4,5-b]pyridine-7-carboximidamide]		9.7
O/N=C(\Nc1cc(Br)ccc1F)c1ccnc2nc[nH]c12 [Example 71, N-(5-Bromo-2-fluorophenyl)-N′-hydroxy-1H-imidazo[4,5-b]pyridine-7-carboximidamide]		0.207
O/N=C(\Nc1ccc(F)c(Cl)c1)c1cc(F)c(F)c2nc(NCC34CCCN3CCC4)[nH]c12 [Example 471, N-(3-chloro-4-fluorophenyl)-4,5-difluoro-2-(((hexahydro-1H-pyrrolizin-7a-yl)methyl)amino)-N′-hydroxy-1H-benzo[d]imidazole-7-carboximidamide]	0.852	
Nc1nc2c(F)ccc(/C(=N/O)Nc3ccc(F)c(Br)c3)c2[nH]1 [Example 19, 2-Amino-N-(3-bromo-4-fluorophenyl)-4-fluoro-N′-hydroxy-1H-benzo[d]imidazole-7-carboximidamide]		0.456
CC(O)c1nc2nccc(/C(=N/O)Nc3ccc(F)c(Cl)c3)c2[nH]1 (stereo not drawn) [Example 172, N-(3-Chloro-4-fluorophenyl)-N′-hydroxy-2-(1-hydroxyethyl)-1H-imidazo[4,5-b]pyridine-7-carboximidamide]		3.86
O/N=C(\Nc1ccc(F)c(Cl)c1)c1ccnc2nc(C3CCCN3)[nH]c12 (stereo not drawn) [Example 152, N-(3-Chloro-4-fluorophenyl)-N′-hydroxy-2-(pyrrolidin-2-yl)-1H-imidazo[4,5-b]pyridine-7-carboximidamide]		4.04
CC(C)(O)c1nc2nccc(/C(=N/O)Nc3ccc(F)c(Cl)c3)c2[nH]1 [Example 175, N-(3-Chloro-4-fluorophenyl)-N′-hydroxy-2-(2-hydroxypropan-2-yl)-1H-imidazo[4,5-b]pyridine-7-carboximidamide]		6.42
O/N=C(\Nc1ccc(F)c(Cl)c1)c1ccnc2nc(-c3cccs3)[nH]c12 [Example 146, N-(3-Chloro-4-fluorophenyl)-N′-hydroxy-2-(thiophen-2-yl)-1H-imidazo[4,5-b]pyridine-7-carboximidamide]		4.21
O/N=C(\Nc1ccc(F)cc1)c1ccnc2nc[nH]c12 [Example 89, N-(4-Fluorophenyl)-N′-hydroxy-1H-imidazo[4,5-b]pyridine-7-carboximidamide]		0.943
O/N=C(\Nc1ccc(F)c(Cl)c1)c1ccc(C(F)(F)F)c2nc[nH]c12 [Example 7, N-(3-Chloro-4-fluorophenyl)-N′-hydroxy-4-(trifluoromethyl)-1H-benzo[d]imidazole-7-carboximidamide]		0.926
OCc1nc2c(/C(=N/O)Nc3ccc(F)c(Cl)c3)cc(F)c(F)c2[nH]1 [Example 46, N-(3-Chloro-4-fluorophenyl)-4,5-difluoro-N′-hydroxy-2-(hydroxymethyl)-1H-benzo[d]imidazole-7-carboximidamide]		0.835
CN1CCC(Nc2nc3c(F)c(F)cc(/C(=N/O)Nc4ccc(F)c(Cl)c4)c3[nH]2)CC1 [Example 442, N-(3-chloro-4-fluorophenyl)-4,5-difluoro-N′-hydroxy-2-((1-methylpiperidin-4-yl)amino)-1H-benzo[d]imidazole-7-carboximidamide]	2.88	
O/N=C(\Nc1ccc(F)c(Cl)c1)c1ccc(F)c2nc(NCCCN3CCOCC3)[nH]c12 [Example 200, N-(3-Chloro-4-fluorophenyl)-7-fluoro-N′-hydroxy-2-(3-morpholin-4-ylpropylamino)-3H-benzimidazole-4-carboximidamide]		0.564

The next lines start with the values.

EC50 [1] [µM]	EC50 [2] [µM]	Compound
	0.529	O/N=C(\Nc1ccc(F)c(Cl)c1)c1ccnc2nc(-c3ncc[nH]3)[nH]c12 [Example 149, N-(3-Chloro-4-fluorophenyl)-N′-hydroxy-2-(1H-imidazol-2-yl)-1H-imidazo[4,5-b]pyridine-7-carboximidamide]
	4.49	CN(C)CCCc1nc2c(F)c(F)cc(/C(=N/O)Nc3ccc(F)c(Cl)c3)c2[nH]1 [Example 199, N-(3-Chloro-4-fluorophenyl)-2-[3-(dimethylamino)propyl]-6,7-difluoro-N′-hydroxy-3H-benzimidazole-4-carboximidamide]
	0.477	O/N=C(\Nc1cccc(Br)c1)c1ccnc2nc(CCN3CCCCC3)[nH]c12 [Example 272, N-(3-bromophenyl)-N′-hydroxy-2-(2-(piperidin-1-yl)ethyl)-1H-imidazo[4,5-b]pyridine-7-carboximidamide]
3.01		CN(C)CCSc1nc2c(F)c(F)cc(/C(=N/O)Nc3ccc(F)c(Cl)c3)c2[nH]1 [Example 488, N-(3-chloro-4-fluorophenyl)-2-((2-(dimethylamino)ethyl)thio)-4,5-difluoro-N′-hydroxy-1H-benzo[d]imidazole-7-carboximidamide]
	3.43	O/N=C(\Nc1ccc(F)c(Cl)c1)c1ccnc2nc(CNC3CCOCC3)[nH]c12 [Example 132, N-(3-Chloro-4-fluorophenyl)-N′-hydroxy-2-(((tetrahydro-2H-pyran-4-yl)amino)methyl)-1H-imidazo[4,5-b]pyridine-7-carboximidamide]
3.43		CN(C)c1ccccc1CNc1nc2c(F)c(F)cc(/C(=N/O)Nc3ccc(F)c(Cl)c3)c2[nH]1 [Example 348, N-(3-chloro-4-fluorophenyl)-2-((2-(dimethylamino)benzyl)amino)-4,5-difluoro-N′-hydroxy-1H-benzo[d]imidazole-7-carboximidamide]
	0.565	CN(CCc1nc2nccc(/C(=N/O)Nc3ccc(F)c(Cl)c3)c2[nH]1)CC1CC1 [Example 186, N-(3-Chloro-4-fluorophenyl)-2-(2-((cyclopropylmethyl)(methyl)amino)ethyl)-N′-hydroxy-1H-imidazo[4,5-b]pyridine-7-carboximidamide]
	0.241	CNc1nc2nccc(/C(=N/O)Nc3ccc(F)c(Br)c3)c2[nH]1 [Example 257, N-(3-bromo-4-fluorophenyl)-N′-hydroxy-2-(methylamino)-1H-imidazo[4,5-b]pyridine-7-carboximidamide]
	3.45	O/N=C(\Nc1ccc(F)c(Cl)c1)c1ccnc2nc(CCN3CC[C@H](O)C3)[nH]c12 [Example 261, (S)—N-(3-chloro-4-fluorophenyl)-N′-hydroxy-2-(2-(3-hydroxypyrrolidin-1-yl)ethyl)-1H-imidazo[4,5-b]pyridine-7-carboximidamide]
	1.2	CN(C)CCNc1nc2nccc(C(=NO)Nc3ccc(F)c(Cl)c3)c2[nH]1 [Example 215, N-(3-chloro-4-fluorophenyl)-2-((2-(dimethylamino)ethyl)amino)-N′-hydroxy-1H-imidazo[4,5-b]pyridine-7-carboximidamide]
> 10		O/N=C(\Nc1ccc(F)c(Cl)c1)c1cc(F)c(F)c2nc(N[C@@H]3CNC[C@@H]3O)[nH]c12 [Example 468, N-(3-chloro-4-fluorophenyl)-4,5-difluoro-N′-hydroxy-2-(((3R,4S)-4-hydroxypyrrolidin-3-yl)amino)-1H-benzo[d]imidazole-7-carboximidamide]
1.49		O/N=C(\Nc1ccc(F)c(Cl)c1)c1cc(F)c(F)c2nc(N[C@@H]3CCCNC3)[nH]c12 [Example 446, (R)—N-(3-chloro-4-fluorophenyl)-4,5-difluoro-N′-hydroxy-2-(piperidin-3-ylamino)-1H-benzo[d]imidazole-7-carboximidamide]
	0.494	Nc1nc2c(F)c(F)cc(/C(=N/O)Nc3ccc(F)c(Br)c3)c2[nH]1 [Example 14, 2-Amino-N-(3-bromo-4-fluorophenyl)-4,5-difluoro-N′-hydroxy-1H-benzo[d]imidazole-7-carboximidamide]
